ChEMBL document CHEMBL2406915, “Antimalarial and cytotoxic activities of chiral triamines” (Bioorg Med Chem Lett, 2013)
Values after ≈ are worked out from the molar mass of the structure shown.

How the values were obtained:
[1] = Toxicity index, ratio of ED50 for human KB cells to ED50 for […] Plasmodium falciparum 3D7; format: cell-based; details: KB cells versus Plasmodium falciparum 3D7, read-out: Ratio ED50
[2] = tested on: Plasmodium falciparum; experiment: Antimalarial activity against […] Plasmodium falciparum 3D7; format: functional, organism-based; details: for EC50: read-out: ED50 (the source's name)
[3] = Cytotoxicity against human KB cells; format: cell-based; details: read-out: ED50 (the source's name)

Structure (SMILES)	selectivity ratio [1]	EC50 [2] [mg/L]	CC50 [3] [mg/L]	IC50 [2] [mg/L]
CNC[C@H](Cc1ccc2ccccc2c1)NC[C@H](Cc1ccc2ccccc2c1)NCCC1CCCCC1	88.5	0.02 (≈ 0.0394 µM)	1.77 (≈ 3.49 µM)	
CNC[C@@H](CC1CCCCC1)NC[C@H](Cc1ccc2ccccc2c1)NCC1CCC(C)CC1 (stereo not given in full)	69	0.1 (≈ 0.216 µM)	6.9 (≈ 14.9 µM)	
CNC[C@@H](CC1CCCCC1)NC[C@H](Cc1ccc2ccccc2c1)NCCC1CCCCC1		0.11 (≈ 0.237 µM)	0.11 (≈ 0.237 µM)	
CNC[C@H](Cc1ccc2ccccc2c1)NC[C@H](Cc1ccc2ccccc2c1)NCC(C)c1ccc(CC(C)C)cc1 (stereo not given in full)	11.6	0.18 (≈ 0.315 µM)	2.09 (≈ 3.65 µM)	
CNC[C@H](Cc1ccc2ccccc2c1)NC[C@@H](Cc1ccc2ccccc2c1)NCC1CCC(C)CC1 (stereo not given in full)	20.3	0.1 (≈ 0.197 µM)	2.03 (≈ 4 µM)	
CCOc1ccc(CCN[C@H](CN[C@@H](CNC)CC2CCCCC2)Cc2ccc3ccccc3c2)cc1	19.3	0.16 (≈ 0.319 µM)	3.1 (≈ 6.18 µM)	
C[C@H]1[C@H](OC(=O)CCC(=O)O)O[C@@H]2O[C@@]3(C)CC[C@H]4[C@H](C)CC[C@@H]1[C@@]24OO3 [ARTESUNATE]				0.002 (≈ 0.0052 µM)
CNC[C@@H](CC1CCCCC1)NC[C@H](Cc1ccc2ccccc2c1)NCC1(c2ccccc2)CC1	15.7	0.11 (≈ 0.227 µM)	1.71 (≈ 3.53 µM)	
CNC[C@@H](Cc1ccc2ccccc2c1)NC[C@H](Cc1ccc2ccccc2c1)NCC1(c2ccccc2)CC1	4.93	0.29 (≈ 0.549 µM)	1.43 (≈ 2.71 µM)	
CNC[C@@H](CC1CCCCC1)NC[C@@H](Cc1ccc2ccccc2c1)NCCc1ccc(Cl)c(Cl)c1	19.2	0.22 (≈ 0.418 µM)	4.23 (≈ 8.03 µM)	
CNC[C@H](Cc1ccc2ccccc2c1)NC[C@@H](Cc1ccc2ccccc2c1)NCCc1ccc(Cl)c(Cl)c1	23	0.24 (≈ 0.421 µM)	5.53 (≈ 9.69 µM)	
CNC[C@@H](Cc1ccccc1)NC[C@@H](Cc1ccc2ccccc2c1)NCC1(c2ccccc2)CC1	5.46	0.28 (≈ 0.586 µM)	1.53 (≈ 3.2 µM)	
CCOc1ccc(CCN[C@H](CN[C@H](CNC)Cc2ccc3ccccc3c2)Cc2ccc3ccccc3c2)cc1	26	0.12 (≈ 0.22 µM)	3.23 (≈ 5.92 µM)	
CNC[C@H](Cc1ccc2ccccc2c1)NC[C@@H](Cc1ccc2ccccc2c1)NCCC1CCCCC1	17.7	0.09 (≈ 0.177 µM)	1.6 (≈ 3.15 µM)	
CNC[C@H](Cc1ccc2ccccc2c1)NC[C@@H](Cc1ccc2ccccc2c1)NCC1(c2ccccc2)CC1	32	0.05 (≈ 0.0947 µM)	1.6 (≈ 3.03 µM)	
CNC[C@H](Cc1ccc2ccccc2c1)NC[C@H](Cc1ccc2ccccc2c1)NCC1(c2ccccc2)CC1	43.5	0.05 (≈ 0.0947 µM)	2.18 (≈ 4.13 µM)	
CNC[C@@H](Cc1ccccc1)NC[C@@H](Cc1ccc2ccccc2c1)NCC1CCC(C)CC1 (stereo not given in full)	8.23	0.22 (≈ 0.481 µM)	1.73 (≈ 3.78 µM)	
CNC[C@@H](CC1CCCCC1)NC[C@@H](Cc1ccc2ccccc2c1)NCCC1CCCCC1	11.3	0.14 (≈ 0.302 µM)	1.59 (≈ 3.43 µM)	
CNC[C@@H](CC1CCCCC1)NC[C@@H](Cc1ccc2ccccc2c1)NCC(C)c1ccc(CC(C)C)cc1 (stereo not given in full)	24.1	0.29 (≈ 0.549 µM)	7.01 (≈ 13.3 µM)	
CNC[C@H](Cc1ccc2ccccc2c1)NC[C@@H](Cc1ccc2ccccc2c1)NCC(C)c1ccc(CC(C)C)cc1 (stereo not given in full)	13	0.13 (≈ 0.227 µM)	1.71 (≈ 2.99 µM)	
CNC[C@@H](Cc1ccccc1)NC[C@H](Cc1ccc2ccccc2c1)NCC1(c2ccccc2)CC1	2.36	0.22 (≈ 0.461 µM)	0.52 (≈ 1.09 µM)	
